Several values for one entry are separate records, joined by “and”; a condition that tells them apart may be missing. Equal entries are not always repeated.
Key:
Format in all cases: biochemical
[1] = tested on: Cerrena sp. laccase; test: Soluble indigo bleaching at two pH values, Cerrena sp. laccase (Example 3)
Method: (§1) A saturated solution of indigo in N-methylpyrrolidone (NMP) was prepared by stirring indigo (30 mg) in NMP (10 ml) at room temperature for 5 hours. The NMP solution was diluted 10-fold into an aqueous buffer solution resulting in a blue solution. For example, dilution into 50 mM sodium acetate buffer at pH 5, or 50 mM sodium phosphate buffer at pH 7. Solutions were shaken well immediately before use.
(§2) The assay for the bleaching of the solubilized indigo substrate was performed in a 96-well microtitre plate whereby each well received the soluble indigo solution in 50 mM sodium acetate buffer at pH 5 (180 uL), laccase (10 ppm enzyme) and mediator solution (from a 20 mM stock solution in methanol). The total volume of each well was adjusted to 200 uL with deionzed water. A control containing laccase only was run in duplicate. The plate was sealed and incubated at 50° C. for 2 hours at 800 rpm on a heated agitator (Thermomixer, Eppendorf). Following this period, the plates were unsealed and a solution of ascorbic acid (20 uL of a 10% aqueous solution) added to each well in order to reduce the oxidized forms of the mediators. The extent of indigo bleaching was then assessed by determining the absorbance for each well at 600 nm using a microtitre plate reader. The lower the absorbance reading, the greater the extent of indigo bleaching.
(§3) Laccases derived from Myceliophtora (Denilite® II, Novozymes, Bagsvaerd, Denmark), Thielavia (Ecostone LCC10, AB enzymes, Darmstadt, Germany) and Cerrena sp. were assessed for their ability to bleach solubilized indigo in conjunction with low molecular weight mediators at two pH values.
(§4) Bleaching of solubilized indigo in 96-well microtitre plates was performed as described in Example 1, using 3 different laccases at pH values of 5 and 7.

[2] = tested on: Thielavia sp. laccase (Ecostone LCC10); test: Bleaching of solubilized indigo, Thielavia sp. laccase with mediators (Example 2); conditions: laccase 10 ppm, pH 5, 50° C., 2 hours, n = 2
Method: An assay for the bleaching of the solubilized indigo substrate by laccase/mediator combinations was performed in a 96-well microtitre plate as follows
as §1, §2

[3] = tested on: Myceliophtora laccase (Denilite II); test: Soluble indigo bleaching at two pH values, Myceliophtora laccase (Example 3)
Method: as §1, §2, §3, §4

[4] = tested on: C. unicolor laccase; test: Bleaching of denim swatches with C. unicolor laccase (Example 4); design: key to ΔL Denim swatch Frontside / Δb Denim swatch Frontside / ΔL Denim swatch Backside / Δb Denim swatch Backside / Δa Denim swatch Backside / Δa Denim swatch Frontside: difference between initial and final CIE L*a*b* values; key to ΔE (total color difference) Denim swatch Backside / ΔE (total color difference) Denim swatch Frontside: ΔE = (ΔL²+Δa²+Δb²)^1/2 from CIE L*a*b* before/after bleaching; conditions: for ΔE (total color difference) Denim swatch Backside / ΔE (total color difference) Denim swatch Frontside / ΔL Denim swatch Backside / ΔL Denim swatch Frontside / Δa Denim swatch Backside / Δb Denim swatch Backside / Δb Denim swatch Frontside: laccase 20 ppm, pH 6, 50° C., 2 hours
Method: Denim legs (made out of sulfur bottom/indigo dyed denim fabric from Cone Mill, style number 1662P) were pretreated with IndiAge® 2XL at a dose of 1 gram per liter in a 50 lb lab scale tumbling washer. The liquor ratio was 6 to 1 (5 kg substrate in 30 liters of water) and the treatment was performed at 55° C. at pH 4.5 for 1 hour. A warm rinse followed the cellulase treatment, after which the fabric was dried in a tumble dryer. A punch press was used to cut ⅝ inch denim disks from IndiAge® 2XL pretreated denim legs. Each denim disk is pre read with a Chroma Meter CR-200 by Minolta in order to determine the CIE L*a*b* values of both the front and backside of the fabric disk.
One denim disk is placed in each well of two duplicate 12 well micro-titer plates. Each well received C. unicolor laccase (20 uL of 1/20 dilution, approx. 20 ppm), mediator (200, 100, 50 or 20 uL of a 20 mM stock solution in methanol) and 50 mM potassium phosphate buffer, pH 6 for a total volume of 2 mL/well. The mediators were methyl syringate (MS), 4-cyano-2,6-dimethoxyphenol (SN) and 3,4,5-trimethoxyphenol (TMP). The plates were sealed and incubated at 50° C. for 2 hours at 150 rpm in a standard incubator. Following this period, the swatches were removed from the plates and carefully placed on a filter paper in a Buchner funnel and washed with copious amounts of water, followed by drying of the residual water under high vacuum overnight. The swatches were then re-read with the chromometer in order to determine the CIE L*a*b* values of both the front and backside of the disk following bleaching. The total color difference (ΔE) is calculated from the difference between the initial and final CIE L*a*b* values according to the formula ΔE=(ΔL^2+Δa^2+Δb^2)^1/2 The total color differences (ΔE) as a function of mediator concentration are plotted in FIGS. 5 and 6.

COc1cc(C(N)=O)cc(OC)c1O [SA, 4-carboxamido-2,6-dimethoxyphenol]
ΔA600 Cerrena ([1]; pH 5, mediator 250 uM): 0.142 | ΔA600 Cerrena ([1]; pH 7, mediator 250 uM): 0.128 | ΔA600 (change in absorbance at 600 nm relative to control) ([2]; mediator 50 mM Concentration (head)): 0.088 | ΔA600 (change in absorbance at 600 nm relative to control) ([2]; mediator 500 mM Concentration (head)): 0.170 | ΔA600 Myceliophtora ([3]; pH 5, mediator 250 uM): 0.254 | ΔA600 Myceliophtora ([3]; pH 7, mediator 250 uM): 0.220

COc1cc(C#N)cc(OC)c1O [SN, 4-cyano-2,6-dimethoxyphenol]
effectiveness as mediator for denim swatch bleaching ([4]; C. unicolor laccase 20 ppm, 200-2000 uM mediator): most effective mediator | ΔE (total color difference) Denim swatch Backside ([4]; mediator 200 uM): 10.39 and 10.37 | ΔE (total color difference) Denim swatch Frontside ([4]; mediator 200 uM): 7.24 and 8.51 | ΔL Denim swatch Backside ([4]; mediator 200 uM): 8.38 and 8.67 | ΔL Denim swatch Frontside ([4]; mediator 200 uM): 6.63 and 7.98 | Δa Denim swatch Backside ([4]; mediator 200 uM): 0.54 and 0.38 | Δb Denim swatch Backside ([4]; mediator 200 uM): 6.12 and 5.67 | Δb Denim swatch Frontside ([4]; mediator 200 uM): 2.57 and 2.67 | ΔE (total color difference) Denim swatch Backside ([4]; mediator 500 uM): 13.43 and 14.11 | ΔE (total color difference) Denim swatch Frontside ([4]; mediator 500 uM): 15.59 and 13.17 | ΔL Denim swatch Backside ([4]; mediator 500 uM): 10.71 and 11.6 | ΔL Denim swatch Frontside ([4]; mediator 500 uM): 14.46 and 12.06 | Δa Denim swatch Backside ([4]; mediator 500 uM): 0.35 and 0.38 | Δb Denim swatch Backside ([4]; mediator 500 uM): 8.1 and 8.03 | Δb Denim swatch Frontside ([4]; mediator 500 uM): 5.51 and 4.92 | ΔE (total color difference) Denim swatch Backside ([4]; mediator 1000 uM): 13.98 and 15.19 | ΔE (total color difference) Denim swatch Frontside ([4]; mediator 1000 uM): 14.75 and 14.92 | ΔL Denim swatch Backside ([4]; mediator 1000 uM): 11.45 and 12.1 | ΔL Denim swatch Frontside ([4]; mediator 1000 uM): 13.54 and 13.84 | Δa Denim swatch Backside ([4]; mediator 1000 uM): 0.07 and 0.14 | Δb Denim swatch Backside ([4]; mediator 1000 uM): 8.02 and 9.19 | Δb Denim swatch Frontside ([4]; mediator 1000 uM): 5.47 and 4.98 | ΔE (total color difference) Denim swatch Backside ([4]; mediator 2000 uM): 15.31 and 16.59 | ΔE (total color difference) Denim swatch Frontside ([4]; mediator 2000 uM): 16.03 and 14.48 | ΔL Denim swatch Backside ([4]; mediator 2000 uM): 12.34 and 13.58 | ΔL Denim swatch Frontside ([4]; mediator 2000 uM): 14.79 and 13.23 | Δb Denim swatch Backside ([4]; mediator 2000 uM): 9.06 and 9.52 | Δb Denim swatch Frontside ([4]; mediator 2000 uM): 5.8 and 5.58

From patent publication US8282688B2, “Laccase mediators and methods of use” (Danisco US Inc., priority 2006, dated 2012)
